Values of other authors, collected in patent US20150297661A1, “ANALGESIC COMPOSITIONS AND METHODS OF USE” (priority 2014, published 2015).

CCOC(=O)c1ccc(N)cc1 [Benzocaine]
duration of effect (after application to skin or mucosal surface): 30 to 60 min | time to peak effect after application (in contact with skin or mucosal surface): ≤ 1 min
